The nature of assay [1]: Inhibition of Escherichia coli MurE after 15 mins by malachite green assay.
Assay [2] concerns Escherichia coli. Nature of the assay: Inhibition of Escherichia coli MurD assessed as residual activity at 100 uM after 15 mins by malachite green assay.
In assay [3] the test system is Pseudomonas aeruginosa. Nature of the assay: Antibacterial activity against Pseudomonas aeruginosa ATCC 27853. It is filed as functional.
The subject of assay [4] is Escherichia coli. Put plainly: Antibacterial activity against Escherichia coli ATCC 25922. The assay is classed as functional.
In assay [5] the test system is Staphylococcus aureus. Put plainly: Antibacterial activity against Staphylococcus aureus ATCC 29213. The assay is classed as functional.
Assay [6] concerns Enterococcus faecalis. Put plainly: Antibacterial activity against Enterococcus faecalis ATCC 29212. The assay is classed as functional.
In assay [7] the test system is Escherichia coli. Nature of the assay: Inhibition of Escherichia coli MurE assessed as residual activity at 100 uM after 15 mins by malachite green assay.
A short description of assay [8]: Inhibition of Escherichia coli MurD.
For assay [9], the system named is Escherichia coli. Nature of the assay: Inhibition of Escherichia coli MurE assessed as residual activity at 250 uM after 15 mins by malachite green assay.
Assay [10] can be described thus: Inhibition of MurD.
Assay [11] concerns Escherichia coli. Put plainly: Inhibition of Escherichia coli MurD assessed as residual activity at 250 uM after 15 mins by malachite green assay.
A short description of assay [12]: Inhibition of Escherichia coli MurD after 15 mins by malachite green assay.
A short description of assay [13]: Inhibition of MurE assessed as residual activity.

Molecules are shown by their SMILES.

In turn, `Cc1cc(/C=C2/C(=O)NC(=S)N(c3cccc(Cl)c3)C2=O)c(C)n1-c1cc(C(=O)O)cc(C(=O)O)c1` had an IC50 in assay [1] of 104 µM. Further, the Activity in [2] is 90%.

Take `Cc1cc(/C=C2/C(=O)NC(=S)N(c3cccc(Cl)c3Cl)C2=O)c(C)n1-c1cc(C(=O)O)cc(C(=O)O)c1`: in assay [1], the IC50 came to 79 µM. Moreover, the Activity in [2] was determined as 83%.

Consider `O=C(O)CC[C@@H](NC(=O)c1ccc(CNc2ccc(/C=C3\SC(=S)NC3=O)cc2)cc1)C(=O)O`, for which the MBC in assay [3], in [4], in assay [5] and in [6] was greater than 128 µg/mL in each case. In addition, the MIC in assay [3], in assay [4], in [5] and in assay [6] was greater than 128 µg/mL throughout.

Turning to `Cc1cc(/C=C2/C(=O)NC(=S)N(c3ccccc3)C2=O)c(C)n1-c1cc(C(=O)O)cc(C(=O)O)c1`, it took 89 µM to reach half-maximal inhibition in [1] (IC50).

Regarding `CCOc1ccc2[nH]c(SCC(=O)Nc3cc(C(=O)O)cc(C(=O)O)c3)nc2c1`, the Activity in [2] was found to be 89%; in assay [7], 95%.

On to `O=C(O)CC[C@H](NS(=O)(=O)c1ccc2cc(O)ccc2c1)C(=O)O`, for which the half-maximal inhibitory concentration (IC50) in [8] came out at 90 µM.

`CCCCCOc1ccc2cc(S(=O)(=O)N[C@H](CCC(=O)O)C(=O)O)ccc2c1` yielded an IC50 in assay [8] of 239 µM.

In turn, `C[C@@H](NC(=O)/C=C/c1ccc2c(c1)OCO2)P(=O)(O)C[C@H](CCC(=O)O)C(=O)O` registered an IC50 in assay [8] of 95 µM.

Regarding `O=C(O)CC[C@@H](NC(=O)c1ccc(/C=C2\SC(=S)NC2=O)cc1)C(=O)O`, the MBC in assay [3], in assay [4], in [5] and in assay [6] was greater than 128 µg/mL throughout. In addition, the MIC in assay [3], in [4], in [5] and in assay [6] was greater than 128 µg/mL throughout.

For `COc1ccc(-c2ccc(/C=C3\SC(=S)N(C(CCC(=O)O)C(=O)O)C3=O)o2)c([N+](=O)[O-])c1` (stereo not drawn), the values for the Activity in assay [9], in assay [2] and in assay [7] were 70%, 87% and 70%, respectively.

In [8], `O=C(O)CC[C@@H](NS(=O)(=O)c1ccc2cc(OCCCc3ccccc3)ccc2c1)C(=O)O` displayed a concentration for half-maximal inhibition (IC50) of 180 µM.

In turn, `Cc1cc(/C=C2/C(=O)NC(=S)N(c3ccc(Cl)cc3)C2=O)c(C)n1-c1cc(C(=O)O)cc(C(=O)O)c1` returned an IC50 in assay [1] of 97 µM. The Activity in [2] is 69%.

Regarding `O=C(O)CCC(C(=O)O)N1C(=O)/C(=C/c2ccc(-c3ccc([N+](=O)[O-])cc3)o2)SC1=S` (stereo not drawn), the IC50 in assay [1] stood at 61 µM. In assay [2], the Activity worked out at 74%.

Molecule `CCCCOc1ccc2cc(S(=O)(=O)N[C@@H](CCC(=O)O)C(=O)O)ccc2c1` returned an IC50 in assay [10] of 710 µM.

Regarding `CCc1ccccc1N1C(=O)/C(=C\c2cc(C)n(-c3cc(C(=O)O)cc(C(=O)O)c3)c2C)C(=O)NC1=S`, the values for the Activity in assay [2] and in assay [7] were 92% and 55%, respectively.

Take `CCOc1ccc2nc(SCC(=O)Nc3cc(C(=O)O)cc(C(=O)O)c3)sc2c1`: the Activity in [2] is 98%; in assay [7] it was 84%.

For the molecule `O=C(CSc1nc2ccccc2s1)Nc1cc(C(=O)O)cc(C(=O)O)c1`, the values for the Activity in assay [2] and in [7] were 97% and 94%, respectively.

`N#Cc1ccc(COc2ccc3cc(S(=O)(=O)N[C@H](CCC(=O)O)C(=O)O)ccc3c2)cc1`: half-maximal inhibition in assay [8] (IC50) was put at 134 µM.

Regarding `Cc1cc(C=C2C(=O)NC(=S)NC2=O)c(C)n1-c1cc(C(=O)O)cc(C(=O)O)c1`, the Activity in assay [2] stood at 99%; in assay [7], 76%.

Take `O=C(O)c1cc(C(=O)O)cc(-c2ccc(/C=C3/SC(=S)N(NC(=O)c4cccs4)C3=O)o2)c1`: the Activity in assay [11] came out at 82%; in assay [9] it was 81%.

Consider `COC(=O)CC[C@@H](NC(=O)c1ccc(/C=C2\SC(=S)NC2=O)cc1)C(=O)OC`, for which the MBC in assay [3], in assay [4], in assay [5] and in [6] was greater than 128 µg/mL in each case. Also, the MIC in assay [3], in assay [4], in [5] and in assay [6] was greater than 128 µg/mL throughout.

Consider `C[C@@H](NS(=O)(=O)Cc1ccc([N+](=O)[O-])cc1)C(=O)N[C@H](C)P(=O)(O)C[C@H](CCC(=O)O)C(=O)O`, for which half-maximal inhibition in assay [8] (IC50) was put at 78 µM.

On to `O=C(O)c1cc(C(=O)O)cc(-c2ccc(/C=C3/SC(=S)N(c4ccc5c(c4)OCO5)C3=O)o2)c1`, for which the values for the IC50 in assay [1] and in assay [12] were 32 µM and 270 µM, respectively.

Take `C[C@@H](NS(=O)(=O)Cc1ccc([N+](=O)[O-])cc1)C(=O)N[C@H](C)P(=O)(O)C[C@@H](CC(=O)O)C(=O)O`: in assay [13], the Activity worked out at 8%. In addition, the 50% inhibitory concentration (IC50) in assay [8] amounted to 78 µM.

Turning to `COc1cccc(/C=C2\SC(=S)N(C(CCC(=O)O)C(=O)O)C2=O)c1` (stereo not drawn), the Activity stood at 98% in [2] and 89% in [7].

For `CCCCOc1ccc2cc(S(=O)(=O)N[C@H](CCC(=O)O)C(=O)O)ccc2c1`, the IC50 in assay [10] came to 276 µM.

The molecule `CCOC(=O)COc1ccc2cc(S(=O)(=O)N[C@H](CCC(=O)O)C(=O)O)ccc2c1` had an IC50 in assay [8] of 192 µM.
